# According to patent US12247033B2, “Triazole-substituted imidazo[1,2-a]pyrimidines as cGAS inhibitors” (GlaxoSmithKline Intellectual Property Development Limited, priority 2022, dated 2025):
# Several values for one entry are separate records, joined by “and”; a condition that tells them apart may be missing. Identical values can stand only once. Counter-ions that a name gives are not always drawn.
# Legend:
# cGAS pathway = assay: Whole blood (hWB) cytokine release assay (96-well, Bacmam stimulation, plasma IP-10 by Meso-Scale Discovery plates); type: cell-based; settings: 6 h, Table 4, human whole blood from individual healthy donors; for IC50: Homo sapiens, read-out: hWB pXC50 (converted)
# Experimental: The whole blood (hWB) cytokine release assay was performed as follows.
# Human whole blood was collected from individual healthy donors into a 60 ml syringe containing sodium heparin (5 ml sodium heparin per syringe; Cat #309653, Becton-Dickinson, NJ, US). In a biosafety cabinet, 140 ul of the collected blood was transferred to each well of a 96-well flat bottom plate (Cat #167008, VWR, PA, US). The DMSO stock solution of small molecule cGAS inhibitor (10 mM stock solution) was diluted in PBS to prepare 10× solutions (3-fold dilutions) and 20 ul of the prepared 10× solutions was added to appropriate wells. Plates were shaken for 5 minutes at room temperature then incubated at 37° C. for 30 minutes. The stock solution of purified Bacmam was diluted with PBS+0.1% BSA to prepare a 4% (v/v) solution (10×). To activate the cGAS pathway, 20 uL of Bacmam was added to the blood, and the plates were shaken for 10 minutes at room temperature. PBS was added to achieve a final volume of 200 ul. Plates were then incubated at 37° C. for 6 hours.
# Plates were removed from incubator and 100 uL/well PBS added. Plates were gently shaken for 10 minutes at room temperature and centrifuged (3000 rpm, 10 minutes) at room temperature. The plasma layer was removed and transferred to a separate 96-well plate and maintained at −80° C.
# Plasma samples were measured for IP-10 levels using the IP-10 detection (U-plex or V-plex) plates (Cat #K151-UFK-4; Cat #K151-NVD-4; Meso-Scale Discovery, Inc.).
# human CGAS (157-522) = human CGAS (157-522) (Homo sapiens, UniProt Q8N884); assay: biochemical;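 also: biochemical enzyme reaction, 2′3′-cGAMP product measured by RapidFire mass spectrometry (MRM) normalised to c-di-UMP internal standard, inhibition of product formation relative to high and low control wells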
# CGAS = CGAS whole blood cytokine release assay (384-well, BacMam stimulation, IP-10 by cytometric bead array); type: cell-based; settings: Homo sapiens, 6 h; read-out: hWB pXC50 (converted)
# How it was run: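 Heparinised human donor whole blood mixed with serially diluted compound plus Null BacMam stimulus, incubated 6 h at 37° C, 5% CO2. Supernatant IP-10 quantified by cytometric bead array on flow cytometer (488 nm excitation, 585/40 nm emission); inhibition of IP-10 calculated.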
# [1] = FaSSIF solubility (Fasted State Simulated Intestinal Fluid); type: physicochemical; settings: thermodynamic from solid, FaSSIF pH 6.5, 4 h equilibration at room temperature, dynamic range 1-1000 μg/mL
# Experimental: 1 mL of FaSSIF buffer (3 mM sodium taurocholate, 0.75 mM lecithin in sodium phosphate buffer at pH 6.5) was added to manually weighed 1 mg of the solid compound in a 4 mL vial. […] The residual solid was removed by filtration. The supernatant solution was quantified by HPLC-UV using single point calibration of a known concentration of the compound in DMSO. The dynamic range of the assay was 1-1000 μg/mL.
# human CGAS (157-522), sequence (Q8N884 157-522): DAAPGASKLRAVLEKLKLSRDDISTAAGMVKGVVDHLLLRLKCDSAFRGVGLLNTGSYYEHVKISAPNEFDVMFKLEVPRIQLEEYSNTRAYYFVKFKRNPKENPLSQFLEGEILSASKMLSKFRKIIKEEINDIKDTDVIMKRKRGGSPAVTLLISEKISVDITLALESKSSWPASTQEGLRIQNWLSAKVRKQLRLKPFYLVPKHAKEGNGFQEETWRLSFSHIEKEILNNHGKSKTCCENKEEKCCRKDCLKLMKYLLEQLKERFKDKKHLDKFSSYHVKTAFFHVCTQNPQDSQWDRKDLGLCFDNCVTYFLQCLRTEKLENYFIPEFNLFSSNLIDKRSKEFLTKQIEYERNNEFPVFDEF
Compound,IC50 (cGAS pathway),hWB pXC50 (cGAS pathway),IC50 (human CGAS (157-522)),IC50 (CGAS),solubility at 4 h [1]
FC(F)(F)c1nnc(-c2[nH]c3c(Cl)c(Cl)ccc3c2-c2cn[nH]c2)[nH]1 [WO 2022/137085 Example 11],> 31600 nM,4.6,,,
"CNCCOC(=O)OCn1nc(C(F)(F)F)nc1-c1nc2ncccn2c1-c1cnc[nH]1 [Example 28, {5-[3-(1H-imidazol-5-yl)imidazo[1,2-a]pyrimidin-2-yl]-3-(trifluoromethyl)-1H-1,2,4-triazol-1-yl}methyl 2-(methylamino)ethyl carbonate, 2 trifluoroacetic acid salt]",,,3.16 nM,316 nM,208 µg/mL
COc1nc2c(-n3ccnc3)c(-c3nnc(C(F)(F)F)[nH]3)[nH]c2cc1Cl,,< 4.5 and 5.0,63.1 nM,,
"O=C(O)CCC(=O)OCn1cnc(-c2c(-c3nc(C(F)(F)F)n[nH]3)nc3ncccn23)c1 [Example 23, 4-oxo-4-[(4-{2-[3-(trifluoromethyl)-1H-1,2,4-triazol-5-yl]imidazo[1,2-a]pyrimidin-3-yl}-1H-imidazol-1-yl)methoxy]butanoic acid]",,,251 nM,794 nM,455 µg/mL
Cn1c(-c2nnc(C(F)(F)F)[nH]2)c(-n2ccnc2)c2ccc(Cl)c(Cl)c21 [WO 2022/137085 Example 109],> 31600 nM,"<4.5, <4.5",,,
"Fc1cnc2nc(-c3nc(C(F)(F)F)n[nH]3)c(-c3cnc[nH]3)n2c1 [Example 2, 5-[6-fluoro-3-(1H-imidazol-5-yl)imidazo[1,2-a]pyrimidin-2-yl]-3-(trifluoromethyl)-1H-1,2,4-triazole]",251 nM,,3.98 nM,316 nM,5 µg/mL
"O=C(CCCOP(=O)(O)O)OCn1cnc(-c2c(-c3nc(C(F)(F)F)n[nH]3)nc3ncccn23)c1 [Example 29, {4-oxo-4-[(4-{2-[3-(trifluoromethyl)-1H-1,2,4-triazol-5-yl]imidazo[1,2-a]pyrimidin-3-yl}-1H-imidazol-1-yl)methoxy]butoxy}phosphonic acid, trifluoroacetic acid salt]",,,31.6 nM,316 nM,> 1000 µg/mL
